ChEMBL document CHEMBL1201862, “PubChem BioAssay data set” (2004)
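Compound exposure: 48 hours, 5 concentrations, 96-well plates. Abbreviation: GI50, concentration required for 50% inhibition of growth.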 Activity calls are given as the source filed them. Cut-off read from the data, not from the text of the source: active = GI50 up to about 1.1 µM and inactive = higher.

Tests used:
Assay in all cases: NCI anticancer screen, dose series, 48 h
MDA-N = system: MDA-N
SF-539 = system: SF-539
DU-145 = system: DU-145
SN12C = system: SN12C
SF-268 = system: SF-268
CCRF-CEM = system: CCRF-CEM
HOP-92 = system: HOP-92
ACHN = system: ACHN
MDA-MB-231 = system: MDA-MB-231
K562 = system: K562
MDA-MB-435 = system: MDA-MB-435
SW-620 = system: SW-620
SNB-75 = system: SNB-75
RXF 393 = system: RXF 393
RPMI-8226 = system: RPMI-8226
CAKI-1 = system: CAKI-1
NCI-H460 = system: NCI-H460
MOLT-4 = system: MOLT-4
NCI/ADR-RES = system: NCI/ADR-RES

Compound	GI50 (MDA-N)	GI50 (SF-539)	GI50 (DU-145)	GI50 (SN12C)	GI50 (SF-268)	GI50 (CCRF-CEM)	GI50 (HOP-92)	GI50 (ACHN)	GI50 (MDA-MB-231)	GI50 (K562)	GI50 (MDA-MB-435)	GI50 (SW-620)	GI50 (SNB-75)	GI50 (RXF 393)	GI50 (RPMI-8226)	GI50 (CAKI-1)	GI50 (NCI-H460)	GI50 (MOLT-4)	GI50 (NCI/ADR-RES)
CCOC(=O)C(NC(C)=O)(Nc1ccc(S(N)(=O)=O)cc1)C(F)(F)F (stereo not given)	> 100 µM (inactive)	> 100 µM (inactive)	> 100 µM (inactive)	> 100 µM (inactive)	> 100 µM (inactive)	> 100 µM (inactive)	> 100 µM (inactive)	> 100 µM (inactive)	> 100 µM (inactive)	> 100 µM (inactive)	> 100 µM (inactive)	> 100 µM (inactive)	> 100 µM (inactive)	> 100 µM (inactive)	> 100 µM (inactive)	> 100 µM (inactive)	> 100 µM (inactive)	> 100 µM (inactive)	> 100 µM (inactive)
CC1c2cc(c3c(c2O)CN([C@@H](C)C2CCCCC2)CO3)C(C)c2cc(c3c(c2O)CN([C@@H](C)C2CCCCC2)CO3)C(C)c2cc(c3c(c2O)CN([C@@H](C)C2CCCCC2)CO3)C(C)c2cc1c1c(c2O)CN([C@@H](C)C2CCCCC2)CO1 (stereo not given in full)	0.849 µM (active)	1.77 µM (inactive)	1.35 µM (inactive)	0.962 µM (active)	1.33 µM (inactive)	0.34 µM (active)	1.45 µM (inactive)	1.47 µM (inactive)	1.31 µM (inactive)	0.369 µM (active)	1.8 µM (inactive)	0.986 µM (active)	1.22 µM (inactive)	2.44 µM (inactive)	0.414 µM (active)	1.6 µM (inactive)	1.28 µM (inactive)	1.34 µM (inactive)	1.27 µM (inactive)
C/C(=N\Nc1ccccc1Br)c1cccc(/C(C)=N/Nc2ccccc2Br)n1	31.7 µM (inactive)	88.5 µM (inactive)	> 100 µM (inactive)	> 100 µM (inactive)	59 µM (inactive)	> 100 µM (inactive)	81.5 µM (inactive)	> 100 µM (inactive)	43.4 µM (inactive)	39.7 µM (inactive)	30 µM (inactive)	> 100 µM (inactive)	13 µM (inactive)	19.7 µM (inactive)	> 100 µM (inactive)	49 µM (inactive)	> 100 µM (inactive)	> 100 µM (inactive)	> 100 µM (inactive)
CCOC(CN(C)C(=O)Nc1ccc(Cl)c(Cl)c1)OCC	> 10 µM (inactive)	> 10 µM (inactive)	> 10 µM (inactive)	> 10 µM (inactive)	> 10 µM (inactive)	> 10 µM (inactive)	> 10 µM (inactive)	> 10 µM (inactive)	> 10 µM (inactive)	> 10 µM (inactive)	> 10 µM (inactive)	> 10 µM (inactive)	> 10 µM (inactive)	> 10 µM (inactive)	> 10 µM (inactive)	> 10 µM (inactive)	> 10 µM (inactive)	> 10 µM (inactive)	> 10 µM (inactive)
O=C(CCOS(=O)(=O)CF)N1CCN(C(=O)CCOS(=O)(=O)CF)CC1	> 100 µM (inactive)	28.8 µM (inactive)	35.9 µM (inactive)	35.1 µM (inactive)	24.4 µM (inactive)	3.27 µM (inactive)	35.6 µM (inactive)	17.1 µM (inactive)	> 100 µM (inactive)	56.5 µM (inactive)	> 100 µM (inactive)	> 100 µM (inactive)	10.1 µM (inactive)	59.3 µM (inactive)	> 46.5 µM (inactive)	5.36 µM (inactive)	5.27 µM (inactive)	3.03 µM (inactive)	> 100 µM (inactive)
Cc1nc2ccccc2n1CCc1nc2ccccc2[nH]1	> 100 µM (inactive)	> 100 µM (inactive)	> 100 µM (inactive)	> 100 µM (inactive)	> 100 µM (inactive)	> 100 µM (inactive)	> 100 µM (inactive)	> 100 µM (inactive)	> 100 µM (inactive)	> 100 µM (inactive)	> 100 µM (inactive)	> 100 µM (inactive)	> 100 µM (inactive)	> 100 µM (inactive)	> 100 µM (inactive)	> 100 µM (inactive)	> 100 µM (inactive)	> 100 µM (inactive)	> 100 µM (inactive)
C=C1C(=O)OC2C1C(OC(=O)/C(C)=C/C)CC(O)(CCl)C1C(O)C=C(C)C21O (stereo not given)	14.9 µM (inactive)	20.6 µM (inactive)	16.5 µM (inactive)	14.4 µM (inactive)	22.9 µM (inactive)	2.84 µM (inactive)	8.93 µM (inactive)	5.79 µM (inactive)	15.7 µM (inactive)	3.78 µM (inactive)	23 µM (inactive)	3.85 µM (inactive)	27.5 µM (inactive)	5.93 µM (inactive)	5.68 µM (inactive)	4.14 µM (inactive)	16.7 µM (inactive)	3.92 µM (inactive)	17.9 µM (inactive)
CCC1(C)C=Cc2c(cc(OC)c3c(=O)c4ccccc4n(C)c23)O1 (stereo not given)	> 10 µM (inactive)	4.47 µM (inactive)	> 10 µM (inactive)	> 10 µM (inactive)	> 10 µM (inactive)	9.27 µM (inactive)	> 10 µM (inactive)	> 10 µM (inactive)	> 10 µM (inactive)	8.61 µM (inactive)	> 10 µM (inactive)	> 10 µM (inactive)	7.13 µM (inactive)	2.44 µM (inactive)	3.83 µM (inactive)	1.22 µM (inactive)	8 µM (inactive)	> 10 µM (inactive)	> 10 µM (inactive)
CC(C)OC(=O)OCSc1ccccc1/N=C/c1cccc([N+](=O)[O-])c1	> 10 µM (inactive)	> 10 µM (inactive)	> 10 µM (inactive)	> 10 µM (inactive)	> 10 µM (inactive)	> 10 µM (inactive)	> 10 µM (inactive)	> 10 µM (inactive)	> 10 µM (inactive)	> 10 µM (inactive)	> 10 µM (inactive)	> 10 µM (inactive)	> 10 µM (inactive)	> 10 µM (inactive)	> 10 µM (inactive)	> 10 µM (inactive)	> 10 µM (inactive)	> 10 µM (inactive)	> 10 µM (inactive)
Clc1ccc(/C=N/C23CC4CC(CC(C4)C2)C3)c(Cl)c1	> 10 µM (inactive)	> 10 µM (inactive)	> 10 µM (inactive)	> 10 µM (inactive)	> 10 µM (inactive)	> 10 µM (inactive)	> 10 µM (inactive)	> 10 µM (inactive)	> 10 µM (inactive)	> 10 µM (inactive)	> 10 µM (inactive)	> 10 µM (inactive)	> 10 µM (inactive)	> 10 µM (inactive)	> 10 µM (inactive)	> 10 µM (inactive)	> 10 µM (inactive)	> 10 µM (inactive)	> 10 µM (inactive)
